Results reported in US10227331B2 (priority 2015, dated 2019).
pIC50: −log10 of the molar value.

Columns and labels:
NDM-1 = NDM-1 (Klebsiella pneumoniae, UniProt C7C422); assay: biochemical; assay type: biochemical; conditions: CCF2-FA substrate, 2 hours at 25° C; read-out: NDM-1 IC50
How it was run: (§1)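 Test compound, enzyme and the FRET cephalosporin substrate CCF2-FA are incubated together for 2 hours at 25° C. Cleavage is followed by fluorescence, and IC50 values are derived from semi-logarithmic inhibition curves fitted with a 4-parameter model.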

IMP-1 = IMP-1 (Serratia marcescens, UniProt P52699); assay: biochemical; assay type: biochemical; conditions: CCF2-FA substrate, 2 hours at 25° C; read-out: IMP-1 IC50
Sequence of IMP-1 (P52699 whole entry, looked up, species assumed): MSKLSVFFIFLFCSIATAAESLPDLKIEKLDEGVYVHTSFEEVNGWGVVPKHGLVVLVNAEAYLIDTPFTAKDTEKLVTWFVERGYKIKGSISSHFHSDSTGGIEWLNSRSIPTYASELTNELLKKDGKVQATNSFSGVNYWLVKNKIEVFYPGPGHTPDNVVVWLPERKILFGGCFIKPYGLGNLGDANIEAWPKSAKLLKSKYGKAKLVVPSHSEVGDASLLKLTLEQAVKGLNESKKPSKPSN
How it was run: as §1

[1] = tested on: Klebsiella pneumoniae expressing VIM-1 (IHMA599644); assay type: cell-based; conditions: with imipenem 1 μg/ml; 95% inhibition of bacterial growth
How it was run: (§2)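 Clinical strains grown overnight on blood agar, then diluted 1:100 in 1.1× CAMHB and exposed to test compound with imipenem at 1 μg/ml. Incubation was 22–24 h at 35° C; growth was read by absorbance to find the compound concentration restoring imipenem susceptibility.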

[2] = tested on: Serratia marcescens expressing IMP-1 (CL5741); assay type: cell-based; conditions: with imipenem 1 μg/ml; 95% inhibition of bacterial growth
How it was run: as §2

[3] = tested on: Escherichia coli expressing NDM-1 (CLB30005, CLB30016); assay type: cell-based; conditions: with imipenem 1 μg/ml; 95% inhibition of bacterial growth
How it was run: as §2

[4] = tested on: P. aeruginosa expressing IMP-1, efflux+ (MB9798); assay type: cell-based, Pseudomonas aeruginosa; conditions: for P. aeruginosa expressing IMP-1, efflux+ (MB9798) MITC95: imipenem at 2 μg/mL, in the presence of a class A, C, D serine β-lactamase inhibitor closely related to relebactam; for Efflux ratio: ratio MITC95 PA_9798/MITC95 PA_9799
Text: (§3) The strain background is Pseudomonas aeruginosa PAO1.

VIM-1 = VIM-1 (Pseudomonas aeruginosa (strain ATCC 15692 / DSM 22644 / CIP 104116 / JCM 14847 / LMG 12228 / 1C / PRS 101 / PAO1), UniProt A0A0F7KYQ8); assay: biochemical; conditions: CCF2-FA substrate, 2 hours at 25° C
How it was run: as §1

[5] = tested on: P. aeruginosa expressing IMP-1, efflux− (MB9799); assay: Efflux: concentration of MBL inhibitor which restores susceptibility to imipenem; assay type: cell-based, Pseudomonas aeruginosa; conditions: imipenem at 2 μg/mL, in the presence of a class A, C, D serine β-lactamase inhibitor closely related to relebactam
Text: as §3

Sequence of NDM-1 (C7C422 whole entry, looked up, species assumed): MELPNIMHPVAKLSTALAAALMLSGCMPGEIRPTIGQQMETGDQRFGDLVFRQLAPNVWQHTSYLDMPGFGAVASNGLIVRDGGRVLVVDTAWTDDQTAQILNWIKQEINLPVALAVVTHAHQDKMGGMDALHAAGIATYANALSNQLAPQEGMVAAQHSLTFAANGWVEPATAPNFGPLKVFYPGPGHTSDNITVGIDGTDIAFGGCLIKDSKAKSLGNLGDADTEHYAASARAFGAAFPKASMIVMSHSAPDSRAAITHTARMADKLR

NS(=O)(=O)c1c(S(=O)(=O)C2CNC2)ccc(-c2csc(N3CCCC3)n2)c1-c1nnn[nH]1.O=C(O)C(F)(F)F [Example 120, 3-((4-(2-(pyrrolidin-1-yl)thiazol-4-yl)-2-sulfamoyl-3-(1H-tetrazol-5-yl)phenyl)sulfonyl)azetidin-1-ium 2,2,2-trifluoroacetate]
pIC50 (NDM-1): 9.12
pIC50 (IMP-1): 9.26
Klebsiella pneumoniae expressing VIM-1 (IHMA599644) MITC95 [1]: 6.25 µM
Serratia marcescens expressing IMP-1 (CL5741) MITC95 [2]: 3.125 µM
Escherichia coli expressing NDM-1 (CLB30016) MITC95 [3]: 3.125 µM
P. aeruginosa expressing IMP-1, efflux+ (MB9798) MITC95 [4]: 25 µM
Efflux ratio [4]: 15.99
pIC50 (VIM-1): 8.85
P. aeruginosa expressing IMP-1, efflux− (MB9799) MITC95 [5]: 1.563 µM

NS(=O)(=O)c1c(S(=O)(=O)C2CNC2)ccc(-c2cnc(N3CCCC3)s2)c1-c1nnn[nH]1.O=C(O)C(F)(F)F [Example 121, 3-((4-(2-(pyrrolidin-1-yl)thiazol-5-yl)-2-sulfamoyl-3-(1H-tetrazol-5-yl)phenyl)sulfonyl)azetidin-1-ium 2,2,2-trifluoroacetate]
pIC50 (NDM-1): 9.13
pIC50 (IMP-1): 8.45
Klebsiella pneumoniae expressing VIM-1 (IHMA599644) MITC95 [1]: 6.25 µM
Serratia marcescens expressing IMP-1 (CL5741) MITC95 [2]: 3.125 µM
Escherichia coli expressing NDM-1 (CLB30016) MITC95 [3]: 0.7813 µM
P. aeruginosa expressing IMP-1, efflux+ (MB9798) MITC95 [4]: 200 µM
Efflux ratio [4]: 127.96
pIC50 (VIM-1): 8.84
P. aeruginosa expressing IMP-1, efflux− (MB9799) MITC95 [5]: 1.563 µM

Cc1ccc2cccc(-c3ccc(S(=O)(=O)C4CNC4)c(S(N)(=O)=O)c3-c3nnn[nH]3)c2n1.O=C(O)C(F)(F)F [Example 122, 3-((4-(2-methylquinolin-8-yl)-2-sulfamoyl-3-(1H-tetrazol-5-yl)phenyl)sulfonyl)azetidin-1-ium 2,2,2-trifluoroacetate]
pIC50 (NDM-1): 9.81
pIC50 (IMP-1): 9.24
Klebsiella pneumoniae expressing VIM-1 (IHMA599644) MITC95 [1]: 6.25 µM
Serratia marcescens expressing IMP-1 (CL5741) MITC95 [2]: 3.125 µM
Escherichia coli expressing NDM-1 (CLB30016) MITC95 [3]: 3.125 µM
P. aeruginosa expressing IMP-1, efflux+ (MB9798) MITC95 [4]: 6.25 µM
Efflux ratio [4]: 4.00
pIC50 (VIM-1): 9.49
P. aeruginosa expressing IMP-1, efflux− (MB9799) MITC95 [5]: 1.563 µM

Cn1ncc2c(-c3ccc(S(=O)(=O)C4CNC4)c(S(N)(=O)=O)c3-c3nnn[nH]3)cccc21.O=C(O)C(F)(F)F [Example 123, 3-((4-(1-methyl-1H-indazol-4-yl)-2-sulfamoyl-3-(1H-tetrazol-5-yl)phenyl)sulfonyl)azetidin-1-ium 2,2,2-trifluoroacetate]
pIC50 (NDM-1): 9.77
pIC50 (IMP-1): 8.94
Klebsiella pneumoniae expressing VIM-1 (IHMA599644) MITC95 [1]: 3.125 µM
Serratia marcescens expressing IMP-1 (CL5741) MITC95 [2]: 3.125 µM
Escherichia coli expressing NDM-1 (CLB30016) MITC95 [3]: 1.563 µM
P. aeruginosa expressing IMP-1, efflux+ (MB9798) MITC95 [4]: 25 µM
Efflux ratio [4]: 15.99
pIC50 (VIM-1): 9.67
P. aeruginosa expressing IMP-1, efflux− (MB9799) MITC95 [5]: 1.563 µM

NS(=O)(=O)c1c(S(=O)(=O)C2CNC2)ccc(-c2csc(N3CCOCC3)n2)c1-c1nnn[nH]1.O=C(O)C(F)(F)F [Example 124, 3-((4-(2-morpholinothiazol-4-yl)-2-sulfamoyl-3-(1H-tetrazol-5-yl)phenyl)sulfonyl)azetidin-1-ium 2,2,2-trifluoroacetate]
pIC50 (NDM-1): 8.83
pIC50 (IMP-1): 8.21
Klebsiella pneumoniae expressing VIM-1 (IHMA599644) MITC95 [1]: 12.5 µM
Serratia marcescens expressing IMP-1 (CL5741) MITC95 [2]: 6.25 µM
Escherichia coli expressing NDM-1 (CLB30016) MITC95 [3]: 3.125 µM
P. aeruginosa expressing IMP-1, efflux+ (MB9798) MITC95 [4]: 200 µM
Efflux ratio [4]: 127.96
pIC50 (VIM-1): 8.31
P. aeruginosa expressing IMP-1, efflux− (MB9799) MITC95 [5]: 1.563 µM

NS(=O)(=O)c1c(S(=O)(=O)C2CNC2)ccc(-c2cccc(C3CCC(=O)N3)c2)c1-c1nnn[nH]1.O=C(O)C(F)(F)F (stereo not drawn) [Example 125, 3-((3′-(5-oxopyrrolidin-2-yl)-3-sulfamoyl-2-(1H-tetrazol-5-yl)-[1,1′-biphenyl]-4-yl)sulfonyl)azetidin-1-ium 2,2,2-trifluoroacetate]
pIC50 (NDM-1): 8.40
pIC50 (IMP-1): 8.28
Klebsiella pneumoniae expressing VIM-1 (IHMA599644) MITC95 [1]: 6.25 µM
Serratia marcescens expressing IMP-1 (CL5741) MITC95 [2]: 6.25 µM
Escherichia coli expressing NDM-1 (CLB30016) MITC95 [3]: 6.25 µM
P. aeruginosa expressing IMP-1, efflux+ (MB9798) MITC95 [4]: 50 µM
Efflux ratio [4]: 16.00
pIC50 (VIM-1): 8.60
P. aeruginosa expressing IMP-1, efflux− (MB9799) MITC95 [5]: 3.125 µM

Cc1n[nH]c2ccc(-c3ccc(S(=O)(=O)C4CNC4)c(S(N)(=O)=O)c3-c3nnn[nH]3)cc12.O=C(O)C(F)(F)F [Example 126, 3-((4-(3-methyl-1H-indazol-5-yl)-2-sulfamoyl-3-(1H-tetrazol-5-yl)phenyl)sulfonyl)azetidin-1-ium 2,2,2-trifluoroacetate]
pIC50 (NDM-1): 9.37
pIC50 (IMP-1): 9.15
Klebsiella pneumoniae expressing VIM-1 (IHMA599644) MITC95 [1]: 6.25 µM
Serratia marcescens expressing IMP-1 (CL5741) MITC95 [2]: 6.25 µM
Escherichia coli expressing NDM-1 (CLB30016) MITC95 [3]: 3.125 µM
P. aeruginosa expressing IMP-1, efflux+ (MB9798) MITC95 [4]: 12.5 µM
Efflux ratio [4]: 8.00
pIC50 (VIM-1): 9.32
P. aeruginosa expressing IMP-1, efflux− (MB9799) MITC95 [5]: 1.563 µM

NS(=O)(=O)c1c(S(=O)(=O)C2CNC2)ccc(-c2ccc3cn[nH]c3c2)c1-c1nnn[nH]1.O=C(O)C(F)(F)F [Example 127, 3-((4-(1H-indazol-6-yl)-2-sulfamoyl-3-(1H-tetrazol-5-yl)phenyl)sulfonyl)azetidin-1-ium 2,2,2-trifluoroacetate]
pIC50 (NDM-1): 9.37
pIC50 (IMP-1): 8.52
Klebsiella pneumoniae expressing VIM-1 (IHMA599644) MITC95 [1]: 3.125 µM
Serratia marcescens expressing IMP-1 (CL5741) MITC95 [2]: 3.125 µM
Escherichia coli expressing NDM-1 (CLB30016) MITC95 [3]: 0.7813 µM
P. aeruginosa expressing IMP-1, efflux+ (MB9798) MITC95 [4]: 25 µM
Efflux ratio [4]: 15.99
pIC50 (VIM-1): 9.37
P. aeruginosa expressing IMP-1, efflux− (MB9799) MITC95 [5]: 1.563 µM

NS(=O)(=O)c1c(S(=O)(=O)C2CNC2)ccc(-c2cccc3cccnc23)c1-c1nnn[nH]1.O=C(O)C(F)(F)F [Example 128, 3-((4-(quinolin-8-yl)-2-sulfamoyl-3-(1H-tetrazol-5-yl)phenyl)sulfonyl)azetidin-1-ium 2,2,2-trifluoroacetate]
pIC50 (NDM-1): 9.87
pIC50 (IMP-1): 9.28
Klebsiella pneumoniae expressing VIM-1 (IHMA599644) MITC95 [1]: 3.125 µM
Serratia marcescens expressing IMP-1 (CL5741) MITC95 [2]: 3.125 µM
Escherichia coli expressing NDM-1 (CLB30016) MITC95 [3]: 1.563 µM
P. aeruginosa expressing IMP-1, efflux+ (MB9798) MITC95 [4]: 3.125 µM
Efflux ratio [4]: 2.00
pIC50 (VIM-1): 9.50
P. aeruginosa expressing IMP-1, efflux− (MB9799) MITC95 [5]: 1.563 µM

NS(=O)(=O)c1c(S(=O)(=O)C2CNC2)ccc(-c2cnn3c2CCCC3)c1-c1nnn[nH]1.O=C(O)C(F)(F)F [Example 129, 3-((2-sulfamoyl-4-(4,5,6,7-tetrahydropyrazolo[1,5-a]pyridin-3-yl)-3-(1H-tetrazol-5-yl)phenyl)sulfonyl)azetidin-1-ium 2,2,2-trifluoroacetate]
pIC50 (NDM-1): 9.19
pIC50 (IMP-1): 8.58
Klebsiella pneumoniae expressing VIM-1 (IHMA599644) MITC95 [1]: 6.25 µM
Serratia marcescens expressing IMP-1 (CL5741) MITC95 [2]: 6.25 µM
Escherichia coli expressing NDM-1 (CLB30016) MITC95 [3]: 6.25 µM
P. aeruginosa expressing IMP-1, efflux+ (MB9798) MITC95 [4]: 25 µM
Efflux ratio [4]: 15.99
pIC50 (VIM-1): 8.91
P. aeruginosa expressing IMP-1, efflux− (MB9799) MITC95 [5]: 1.563 µM

Cn1ncc2cccc(-c3ccc(S(=O)(=O)C4CNC4)c(S(N)(=O)=O)c3-c3nnn[nH]3)c21.O=C(O)C(F)(F)F [Example 130, 3-((4-(1-methyl-1H-indazol-7-yl)-2-sulfamoyl-3-(1H-tetrazol-5-yl)phenyl)sulfonyl)azetidin-1-ium 2,2,2-trifluoroacetate]
pIC50 (NDM-1): 9.64
pIC50 (IMP-1): 8.77
Klebsiella pneumoniae expressing VIM-1 (IHMA599644) MITC95 [1]: 6.25 µM
Serratia marcescens expressing IMP-1 (CL5741) MITC95 [2]: 6.25 µM
Escherichia coli expressing NDM-1 (CLB30016) MITC95 [3]: 1.563 µM
P. aeruginosa expressing IMP-1, efflux+ (MB9798) MITC95 [4]: 12.5 µM
Efflux ratio [4]: 4.00
pIC50 (VIM-1): 9.61
P. aeruginosa expressing IMP-1, efflux− (MB9799) MITC95 [5]: 3.125 µM

NS(=O)(=O)c1c(S(=O)(=O)C2CNC2)ccc(-c2ccc3ccncc3c2)c1-c1nnn[nH]1.O=C(O)C(F)(F)F [Example 131, 3-((4-(isoquinolin-7-yl)-2-sulfamoyl-3-(1H-tetrazol-5-yl)phenyl)sulfonyl)azetidin-1-ium 2,2,2-trifluoroacetate]
pIC50 (NDM-1): 9.46
pIC50 (IMP-1): 9.29
Klebsiella pneumoniae expressing VIM-1 (IHMA599644) MITC95 [1]: 3.125 µM
Serratia marcescens expressing IMP-1 (CL5741) MITC95 [2]: 3.125 µM
Escherichia coli expressing NDM-1 (CLB30016) MITC95 [3]: 0.7813 µM
P. aeruginosa expressing IMP-1, efflux+ (MB9798) MITC95 [4]: 25 µM
Efflux ratio [4]: 15.99
pIC50 (VIM-1): 9.89
P. aeruginosa expressing IMP-1, efflux− (MB9799) MITC95 [5]: 1.563 µM
